Measured values: patent publication US20250332143A1, “COMPOSITION COMPRISING ALOX5 INHIBITOR FOR PREVENTING OR TREATING SARCOPENIA” (PLUTO Inc., priority 2022, published 2025)

How the values were obtained:
[1] = tested on: Atrogin-1 and MuRF-1; experiment: qPCR of muscle atrophy regulators in Dex-treated C2C12 myotubes; format: cell-based, mouse
Protocol: (§1) C2C12 murine skeletal muscle myoblasts were obtained from Koram Biotech (Republic of Korea). The cells were maintained in DMEM growth medium supplemented with 10% FBS, 1% penicillin, and streptomycin. When myoblasts proliferated to approximately 90%, they were differentiated into muscle fibers by treating them with DMEM differentiation medium supplemented with 2% HS, 1% penicillin, and streptomycin for 96 hours. Differentiated muscle fibers were treated with 10 μM Dex for 24 hours to induce sarcopenia. To evaluate the degree of differentiation of muscle cells, differentiating myoblasts were treated with the corresponding compound in differentiation medium for 24 or 48 hours.
For quantitative real-time PCR, transcript levels of genes of interest were analyzed using the StepOnePlus real-time PCR system (Applied Biosystems, UK). Total RNA was reverse transcribed to prepare cDNA using AccuPower® RT PreMix (Bioneer Corporation). The obtained cDNA was subjected to real-time PCR according to the manufacturer's instructions with the following changes. PCR was performed in triplicate in a total volume of 20 μL 2× Power SYBR Green PCR Master Mix (Enzynomics, Republic of Korea) containing 200 nM (final concentration) of each specific primer and 1 μL of cDNA synthesized from 1 μg of total RNA. PCR amplification consisted of incubating the mixture at 95° C. for 10 minutes, followed by 40 cycles of denaturation, annealing, and extension. Denaturation was performed at 95° C. for 15 s, annealing was performed at 60° C. for 1 min, and extension was performed at 72° C. for 20 s with fluorescence detection at 72° C. after each cycle. After the final cycle, melting point analysis of all samples was performed within the range of 60 to 95° C. using continuous fluorescence detection. Specific cDNA samples were included in each run and used as reference material for comparison between runs. The expression level of GAPDH was used to calculate and normalize the expression levels of all other genes. Results were expressed as relative expression levels for each gene. The synthesized cDNA was amplified by quantitative real-time PCR (qRT-PCR) or standard PCR.

[2] = tested on: Dex-treated C2C12 myotubes; experiment: Dex-induced myotube atrophy, myosin heavy chain immunostaining, myotube diameter; format: cell-based, mouse; conditions: 10 μM Dex 24 h; for diameter of muscle fibers (C2C12 myotubes): zileuton 10 µM, wedelolactone 20 μM (FIGS. 2, 3)
Protocol: as §1
Muscle fibers were stained using immunochemical staining using myosin heavy chain antibody. Specifically, the muscle fibers were rinsed three times with PBS and then fixed with a 3.7% formaldehyde solution. After rinsing with PBS, a transparency process was performed with 0.2% TritonX-100 solution, and additional rinsing was performed with PBS. They were blocked with 1% bovine serum albumin solution (1% BSA in PBS-T) and incubated with primary antibody overnight at 4° C. After washing with PBS, the secondary antibody was treated for 1 hour. Afterwards, the myotubes were counterstained with 1 μM DAPI in PBS. Fluorescence images of stained myotubes in five different areas were obtained using a DMI 3000 B microscope (Leica, Germany) and analyzed using ImageJ 1.52 software (National Institutes of Health, Bethesda, MD, USA). Myotubes were classified as myosin heavy chain positive cells containing four or more nuclei, and the diameter of muscle fibers containing four or more nuclei was measured.

SMILES | Atrogin-1 expression (mRNA, qPCR) [1] | myotube atrophy in Dex-treated myotubes ([2]; C2C12 myotubes) | MuRF-1 expression (mRNA, qPCR) [1] | diameter of muscle fibers (C2C12 myotubes) [2]
CCCCC/C=C\C[C@@H](O)/C=C/C=C/C=C\[C@@H](O)CCCC(=O)O [LTB4, Leukotriene B4] | did not affect | did not affect |  | 
COc1cc(O)c2c(c1)oc(=O)c1c3cc(O)c(O)cc3oc21 [wedelolactone, Wedelolactone] | decreased |  | decreased | recovered
CC(c1cc2ccccc2s1)N(O)C(N)=O (centres unmarked) [zileuton, Zileuton] | decreased |  | decreased | recovered
